Test [1] concerns the target T1, 11-beta-hydroxysteroid dehydrogenase 1 (Homo sapiens, UniProt P28845).
Target sequence in this assay (P28845 whole entry, looked up): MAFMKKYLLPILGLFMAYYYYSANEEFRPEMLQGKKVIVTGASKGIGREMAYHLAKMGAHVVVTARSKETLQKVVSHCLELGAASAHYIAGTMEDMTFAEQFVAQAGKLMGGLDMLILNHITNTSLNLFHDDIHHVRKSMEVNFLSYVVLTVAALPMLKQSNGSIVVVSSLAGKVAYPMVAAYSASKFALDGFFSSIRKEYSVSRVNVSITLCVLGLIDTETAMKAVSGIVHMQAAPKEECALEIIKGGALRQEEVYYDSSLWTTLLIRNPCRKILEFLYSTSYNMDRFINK
Test [2] addresses 11-beta-hydroxysteroid dehydrogenase 1 (Mus musculus, UniProt P50172). In words: Inhibition of 11beta-HSD1 in mouse liver microsomes fraction. Further details: species or system Microsome.
Test [3] addresses T2, 11-beta-hydroxysteroid dehydrogenase type 2 (Homo sapiens, UniProt P80365).
T2 sequence (P80365 whole entry): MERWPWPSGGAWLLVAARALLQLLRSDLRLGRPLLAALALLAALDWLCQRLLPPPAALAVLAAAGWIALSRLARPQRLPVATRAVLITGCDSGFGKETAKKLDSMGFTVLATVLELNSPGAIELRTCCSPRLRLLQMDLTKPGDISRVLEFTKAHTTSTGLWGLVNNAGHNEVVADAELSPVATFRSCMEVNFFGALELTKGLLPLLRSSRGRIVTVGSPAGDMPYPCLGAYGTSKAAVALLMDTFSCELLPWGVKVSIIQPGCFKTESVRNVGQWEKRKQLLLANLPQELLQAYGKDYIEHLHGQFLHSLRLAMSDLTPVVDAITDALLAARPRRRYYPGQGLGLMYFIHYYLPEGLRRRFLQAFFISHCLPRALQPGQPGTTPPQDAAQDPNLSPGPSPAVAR
In words: Inhibition of human recombinant 11beta-HSD2 expressed in Escherichia coli by HTRF assay.

The species named for the next test is Homo sapiens. In words: Selectivity ratio, IC50 for human recombinant 11beta-HSD2 to IC50 for human recombinant 11beta-HSD1.
The target of test [4] is T1, 11-beta-hydroxysteroid dehydrogenase 1. The experiment in a line: Inhibition of human recombinant 11beta-HSD1 expressed in Escherichia coli by HTRF assay.
Target sequence in this assay (P28845 whole entry): as the sequence (P28845 whole entry, looked up) above
Test [5] shares this target. The experiment in a line: Inhibition of human 11beta-HSD1.

Sequence of 11-beta-hydroxysteroid dehydrogenase 1 (Mus musculus, UniProt P50172) (P50172 whole entry): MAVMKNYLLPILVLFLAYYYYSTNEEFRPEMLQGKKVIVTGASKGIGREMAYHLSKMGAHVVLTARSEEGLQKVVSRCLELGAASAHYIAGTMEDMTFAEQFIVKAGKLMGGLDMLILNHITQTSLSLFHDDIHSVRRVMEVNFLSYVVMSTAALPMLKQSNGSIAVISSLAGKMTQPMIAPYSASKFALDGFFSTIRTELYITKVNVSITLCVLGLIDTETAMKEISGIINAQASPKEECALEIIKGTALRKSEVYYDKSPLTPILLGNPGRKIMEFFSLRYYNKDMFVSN

With `O=C(N1CCC2(CCCCC2)C1)C1(c2ccccc2)CC1`, the BEI in test [1] was determined as 32.7 kDa-1. Moreover, the concentration for half-maximal inhibition (IC50) in test [2] was 377 nM; in test [3], over 100000 nM; in test [4], 0.5 nM. The Ratio IC50 in the test filed under Homo sapiens is over 200000.

Take `O=C(N1CCC2(CCc3ccccc32)C1)C1(c2ccc(Cl)cc2)CC1` (stereo not given): in test [1], the BEI worked out at 21.6 kDa-1. Also, the IC50 in test [2] was 2600 nM; in test [3], over 100000 nM.

As to `O=C(N1CCC2(CCCc3ccccc32)C1)C1(c2ccc(Cl)cc2)CC1` (stereo not given), the BEI in test [1] is 20.9 kDa-1. The values for the IC50 in test [2], in test [3] and in test [4] were 3400 nM, over 100000 nM and 22 nM, respectively. The Ratio IC50 in the test filed under Homo sapiens is over 4500.

In turn, `O=C(N1CCC2(CCCCC2)C1)C1(c2ccc(Cl)cc2)CC1` had a BEI in test [1] of 25.9 kDa-1. For the same compound, the IC50 in test [2] is 3400 nM; in test [3], over 100000 nM; in test [4], 6 nM. In the test filed under Homo sapiens, the Ratio IC50 was over 16000.

Turning to `O=C1CC2(CCN(C(=O)C3(c4ccccc4)CC3)CC2)Oc2ccc(F)cc21`, in test [5], the BEI was found to be 14.8 kDa-1 and the IC50 came out at 2500 nM.

Values taken from ChEMBL document CHEMBL1158438, “Discovery and structure-guided drug design of inhibitors of 11beta-hydroxysteroid-dehydrogenase type I based on a spiro-carboxamide scaffold” (Bioorg Med Chem Lett, 2009).
